The structures appear in SMILES notation.

The text below walks through data of patent US8946187B2, “Materials and methods related to microRNA-21, mismatch repair, and colorectal cancer” (The Ohio State University, priority 2010, dated 2015).

This assay concerns Lovo tumor xenografts. In words: Colorectal cancer xenograft model, 5-FU treatment. The following applies: 5-FU 50 mg/kg/day i.p., 5 days per week for 2 weeks; Lovo(MSH2+) vs Lovo(MSH2−). It is filed as in vivo, nude mice. The source says:
Lovo-MSH2 positive and Lovo-MSH2 negative cells were stably infected with the pCDH-CMV-MCS-EF1-miRNA expression plasmid containing the full-length miR-21 and the GFP gene under the control of two different promoters (System Biosciences, Mountain View, Calif.). An empty vector was used as control. Pre-miR-21 expression and control constructs were packaged with pPACKH1 Lentivector Packaging Plasmid mix (System Biosciences) in 293-TN packaging cell line. Viruses were concentrated using PEG-It™ Virus Precipitation Solution and titers analyzed using UltraRapid Lentiviral Titer Kit (System Biosciences). Infected cells were selected by FACS analysis (FACS Calibur, Becton Dickinson Immunocytometry Systems). Infection efficiency >90% was verified by fluorescent microscopy and further confirmed by real time PCR for miR-21 expression.
Animal studies were performed according to institutional guidelines. […] Tumor volume was measured at the beginning of treatment and then once a week. The estimated tumor volume (V) was calculated by the following formula: V=W2×L×0.5, where W represents the […] tumor diameter. The individual relative tumor volume (RTV) was calculated as follows RTV=Vx/V1 where Vx is the volume in cubic millimeters at a given time and V1 is the volume at the start of treatment. […]

`O=c1[nH]cc(F)c(=O)[nH]1` [5-FU, 5-fluorouracil]: the “efficacy of 5-FU treatment on tumor xenografts” value is “more efficacious with Lovo(MSH2+) tumor xenografts compared to Lovo(MSH2−) tumor xenografts”.
